# Values of other authors in US20210400960A1, “INSECT REPELLENT COMPOSITION” (Mother Earth Dermatics (MED) GMBH, priority 2018, published 2021).
# System: insects
# Settings: depending on the concentration
smiles,measurement,value
"CCN(CC)C(=O)c1cccc(C)c1 [DEET, N,N-diethyl-m-toluamide]",Duration of repellent effect,6 to 8 h
